The data set is described as follows: Chemical stability in aqueous buffer solution. The data set is classed as physicochemical. Conditions: pH 2, 37° C., time after which 10% of the original compound has decomposed. Here is the method:
The chemical stability of the compounds of the invention has been followed kinetically at low concentration at 37° C. in aqueous buffer solution at different pH values. The results in Table 3 show the half life (t 1/2) at pH 7, that is the time period after which half the amount of the original compound remains unchanged, and t10 % at pH 2, that is the time period after which 10% of the original compound has decomposed.
On to `COc1ccnc(C[S+]([O-])c2nc3cc(Cl)ccc3n2COC(=O)OCc2ccccc2)c1OC` (stereo not shown) [Example 1, 5-chloro-2-[[(3,4-dimethoxy-2-pyridinyl)methyl]sulfinyl]-1H-benzimidazole-1-ylmethyl benzyl carbonate], for which the “Chemical Stability at pH 2, t 10%” value is 14 h.

With `COc1ccnc(C[S+]([O-])c2nc3ccc(Cl)cc3n2COC(=O)OCc2ccccc2)c1OC` (stereo not shown) [Example 2, 6-chloro-2-[[(3,4-dimethoxy-2-pyridinyl)methyl]sulfinyl]-1H-benzimidazole-1-ylmethyl benzyl carbonate], the “Chemical Stability at pH 2, t 10%” value stood at 27 h.

As for `CCCCOC(=O)OCn1c([S+]([O-])Cc2nccc(OC)c2OC)nc2cc(Cl)ccc21` (stereo not shown) [Example 3, 5-chloro-2-[[(3,4-dimethoxy-2-pyridinyl)methyl]sulfinyl]-1H-benzimidazole-1-ylmethyl butyl carbonate], the “Chemical Stability at pH 2, t 10%” value came to 21 h.

For `CCCCOC(=O)OCn1c([S+]([O-])Cc2nccc(OC)c2OC)nc2ccc(Cl)cc21` (stereo not shown) [Example 4, 6-chloro-2[[(3,4-dimethoxy-2pyridinyl)methyl]sulfinyl]-1H-benzimidazole-1-ylmethyl butyl carbonate], the “Chemical Stability at pH 2, t 10%” value is on record as 42 h.
